Source: patent US20090004185A1, “AMINO-SUBSTITUTED QUINAZOLINE DERIVATIVES AS INHIBITORS OF BETA-CATENIN/TCF-4 PATHWAY AND CANCER TREATMENT AGENTS” (WYETH, priority 2007, published 2009)
Where a name gives a salt, the structure may show the parent alone.

Tests used:
SV40-Luc = SV40-Luc control luciferase reporter assay, SV 5A8 cell line (SV40-Luc and SV40-R-Luc), control for non-specific inhibitors; assay type: cell-based, human; details: Homo sapiens, SV5A8, 24 h, SV 5A8 cells derived from SW480; 24 hours of incubation with compound; ratio Firefly/Renilla luciferase
In short: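 SW480-derived lines with integrated reporters: SV 5A8 (SV40-Luc + SV40-R-Luc), Tcf 33.13 and Tcf 22C11 (Tcf-4-Luc + SV40-R-Luc). Compounds titrated onto cells for 24 h, final DMSO 0.316%. Firefly and Renilla luminescence read by dual-luciferase; firefly/Renilla ratio as % of control fitted for IC50.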

β-catenin/Tcf-4 = assay: cells; assay type: cell-based; details: Homo sapiens, 24 hours of incubation with compound, ratio Firefly/Renilla luciferase
In short: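 SW480-derived lines with integrated reporters (Tcf-4-driven firefly luciferase; SV40 firefly as specificity control; SV40 Renilla for cell number/toxicity), treated 24 hours with titrated compounds, final 0.316% DMSO. Dual-luciferase read-out; firefly/Renilla ratio as % of control, duplicate plates, IC50 (nM) from curve fit.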

[1] = SW480, 24 h, Tcf 33.13 cells derived from SW480
[2] = Tcf22C11, 24 h, Tcf 22C11 cells derived from SW480

IC50 (SV40-Luc) [nM]	IC50 (β-catenin/Tcf-4; [1]) [nM]	IC50 (β-catenin/Tcf-4; [2]) [nM]	melting point [°C]	SMILES
> 2150	1140	1390	55	CCNc1nc(NCc2ccc(NC(=O)C3CCN(Cc4ccccc4)CC3)cc2)c2ccc(C)cc2n1 [Example 132, 1-benzyl-N-[4-({[2-(ethylamino)-7-methylquinazolin-4-yl]amino}methyl)phenyl]piperidine-4-carboxamide]
> 6780	–	–	200 to 202	Cc1ccc2c(NCc3ccc(NC(=O)c4ccc(F)cc4)cc3)nc(N3CCN[C@@H](C)C3)nc2c1 [Example 234, 4-fluoro-N-{4-[({7-methyl-2-[(3S)-3-methylpiperazin-1-yl]quinazolin-4-yl}amino)methyl]phenyl}benzamide]
> 2300	106	196	97 to 99	Cc1ccc2c(NCc3ccc(NC(=O)C4CCN(Cc5ccc(F)c(F)c5)CC4)cc3)nc(N(C)C)nc2c1 [Example 255, 1-(3,4-difluorobenzyl)-N-[4-({[2-(dimethylamino)-7-methylquinazolin-4-yl]amino}methyl)phenyl]piperidine-4-carboxamide]
> 21600	> 21600	> 21600	305 to 307	CNc1nc(NCc2ccc(NC(=O)c3ccc(Cl)nc3)cc2)c2cc([N+](=O)[O-])ccc2n1 [Example 184, 6-chloro-N-[4-({[2-(methylamino)-6-nitroquinazolin-4-yl]amino}methyl)phenyl]nicotinamide]
–	–	–	246	C/C=C\c1ccc2c(NCc3ccc(NC(=O)c4ccc(F)cc4)cc3)nc(N(C)C)nc2c1 (as salt: HCl) [Example 97, N-{4-[({2-(dimethylamino)-7-[(1Z)-prop-1-en-1-yl]quinazolin-4-yl}amino)methyl]phenyl}-4-fluorobenzamide]
–	–	–	145	C=Cc1ccc2c(NCc3ccc(NC(=O)c4ccc(F)cc4)cc3)nc(N(C)C)nc2c1 (as salt: HCl) [Example 87, N-[4-({[2-(dimethylamino)-7-vinylquinazolin-4-yl]amino}methyl)phenyl]-4-fluorobenzamide]
–	–	–	232	CC(O)c1ccc2c(NCc3ccc(NC(=O)c4ccc(F)cc4)cc3)nc(N(C)C)nc2c1 (stereo not shown) (as salt: HCl) [Example 95, N-[4-({[2-(dimethylamino)-7-(1-hydroxyethyl)quinazolin-4-yl]amino}methyl)phenyl]-4-fluorobenzamide]
–	–	–	128	CN(C)c1nc(NCc2ccc(NC(=O)c3ccc(F)cc3)cc2)c2ccc(-c3ccccc3C=O)cc2n1 (as salt: HCl) [Example 98, N-[4-({[2-(dimethylamino)-7-(2-formylphenyl)quinazolin-4-yl]amino}methyl)phenyl]-4-fluorobenzamide]
> 20200	–	–	195	CC(=O)c1ccc2c(NCc3ccc(NC(=O)c4ccc(F)cc4)cc3)nc(N(C)C)nc2c1 [Example 94, N-[4-({[7-acetyl-2-(dimethylamino)quinazolin-4-yl]amino}methyl)phenyl]-4-fluorobenzamide]
> 2820	–	–	170 to 174	CCCNc1nc(NCc2ccc(NC(=O)c3ccc(F)cc3)cc2)c2ccc(C)cc2n1 [Example 231, 4-fluoro-N-[4-({[7-methyl-2-(propylamino)quinazolin-4-yl]amino}methyl)phenyl]benzamide]
–	–	–	185	C/C=C/c1ccc2c(NCc3ccc(NC(=O)c4ccc(Cl)nc4)cc3)nc(N(C)C)nc2c1 (as salt: HCl) [Example 112, 6-chloro-N-{4-[({2-(dimethylamino)-7-[(1E)-prop-1-en-1-yl]quinazolin-4-yl}amino)methyl]phenyl}nicotinamide]
–	–	–	170	CN(C)c1nc(NCc2ccc(NC(=O)c3ccc(Cl)nc3)cc2)c2ccc(I)cc2n1 (as salt: HCl) [Example 110, 6-chloro-N-[4-({[2-(dimethylamino)-7-iodoquinazolin-4-yl]amino}methyl)phenyl]nicotinamide]
–	–	–	245	CN(C)c1nc(NCc2ccc(NC(=O)c3ccc(F)cc3)cc2)c2ccc(CN)cc2n1 (as salt: HCl) [Example 90, N-[4-({[7-(aminomethyl)-2-(dimethylamino)quinazolin-4-yl]amino}methyl)phenyl]-4-fluorobenzamide]
–	–	–	100	Cc1ccc2c(NCc3ccc(NC(=O)C4CCN(Cc5ccccc5)CC4)cc3)nc(N(C)C)nc2c1 (as salt: HCl) [Example 129, 1-benzyl-N-[4-({[2-(dimethylamino)-7-methylquinazolin-4-yl]amino}methyl)phenyl]piperidine-4-carboxamide]
–	–	–	158	CN(C)c1nc(NCc2ccc(NC(=O)c3ccc(F)cc3)cc2)c2ccc(CO)cc2n1 (as salt: HCl) [Example 93, N-[4-({[2-(dimethylamino)-7-(hydroxymethyl)quinazolin-4-yl]amino}methyl)phenyl]-4-fluorobenzamide]
–	–	–	94	CN(C)Cc1ccc2c(NCc3ccc(NC(=O)c4ccc(F)cc4)cc3)nc(N(C)C)nc2c1 (as salt: HCl) [Example 91, N-{4-[({2-(dimethylamino)-7-[(dimethylamino)methyl]quinazolin-4-yl}amino)methyl]phenyl}-4-fluorobenzamide]
–	–	–	268	C/C=C/c1ccc2c(NCc3ccc(NC(=O)c4ccc(F)cc4)cc3)nc(N(C)C)nc2c1 (as salt: HCl) [Example 96, N-{4-[({2-(dimethylamino)-7-[(1E)-prop-1-en-1-yl]quinazolin-4-yl}amino)methyl]phenyl}-4-fluorobenzamide]
–	–	–	150	CN(C)c1nc(NCc2ccc(NC(=O)c3ccc(F)cc3)cc2)c2ccc(C#N)cc2n1 (as salt: HCl) [Example 89, N-[4-({[7-cyano-2-(dimethylamino)quinazolin-4-yl]amino}methyl)phenyl]-4-fluorobenzamide]
–	–	–	235	O=C(O)CNc1nc(NCc2ccc(NC(=O)c3ccc(F)cc3)cc2)c2ccccc2n1 (as salt: HCl) [Example 127, N-[4-({4-[(4-fluorobenzoyl)amino]benzyl}amino)quinazolin-2-yl]glycine]
> 5780	–	–	233 to 236	CNc1nc(NCc2ccc(NC(=O)c3ccc(Cl)nc3)cc2)c2c(C)cccc2n1 [Example 194, 6-chloro-N-[4-({[5-methyl-2-(methylamino)quinazolin-4-yl]amino}methyl)phenyl]nicotinamide]
–	–	–	270	CCc1ccc2c(NCc3ccc(NC(=O)c4ccc(F)cc4)cc3)nc(N(C)C)nc2c1 (as salt: HCl) [Example 88, N-[4-({[2-(dimethylamino)-7-ethylquinazolin-4-yl]amino}methyl)phenyl]-4-fluorobenzamide]
> 1160	–	–	264 to 266	CNc1nc(NCc2ccc(NC(=O)c3ccc(Cl)cc3)cc2)c2ccc(C)cc2n1 [Example 195, 4-chloro-N-[4-({[7-methyl-2-(methylamino)quinazolin-4-yl]amino}methyl)phenyl]benzamide]
–	–	–	250	C#Cc1ccc2c(NCc3ccc(NC(=O)c4ccc(F)cc4)cc3)nc(N(C)C)nc2c1 (as salt: HCl) [Example 108, N-[4-({[2-(dimethylamino)-7-ethynylquinazolin-4-yl]amino}methyl)phenyl]-4-fluorobenzamide]
